Structures are written as SMILES.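 Dose response: 5 concentrations. Exposure: 48 h. Format: 96-well plates. Endpoint: linear interpolation; highest concentration if not reached. GI50 is the concentration that inhibits growth by half.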 Active and inactive are the calls of the source. Cut-off read from the data, not from the text of the source: active = GI50 up to about 1.1 µM and inactive = higher. A value given as a limit tells only on which side of the number the result lay.

Test systems include CCRF-CEM; HCC 2998; HL-60; Hs-578T; MCF7; MDA-N; Malme-3M; NCI-H226; NCI/ADR-RES; OVCAR-3; PC-3; RXF 393; SF-539; SK-MEL-28; SK-MEL-5; SK-OV-3; SR; TK-10; UO-31; T47D.
Holding throughout (assay): growth of human tumour cells (NCI), 48 h

Regarding `CC1(C)CC2(C)CC1CC2O` (centres undefined), the GI50 with CCRF-CEM, in the assay on HCC 2998, with HL-60, with Hs-578T, in the assay on MCF7 and in the assay on MDA-N was > 100 µM (inactive) each time. The GI50 in the assay on Malme-3M, with NCI-H226, in the assay with NCI/ADR-RES, with OVCAR-3, in the assay with PC-3 and in the assay on RXF 393 was > 100 µM (inactive) each time. The GI50 with SF-539, in the assay on SK-MEL-28, with SK-MEL-5, in the assay on SK-OV-3, in the assay on SR and with TK-10 was > 100 µM (inactive) throughout. For the same compound, in the assay with UO-31, the GI50 is > 100 µM (inactive).

Consider `O=c1o[nH]/c(=N/c2ccccc2)n1-c1ccccc1`, for which the GI50 in the assay on CCRF-CEM was > 100 µM (inactive); in the assay on HCC 2998, 93.3 µM (inactive); in the assay with HL-60 it was > 100 µM (inactive); in the assay with Hs-578T, > 100 µM (inactive); in the assay with MCF7, > 100 µM (inactive); in the assay with MDA-N it was > 100 µM (inactive). Also, the GI50 in the assay on Malme-3M, in the assay on NCI-H226, in the assay with NCI/ADR-RES, in the assay with OVCAR-3, in the assay with PC-3 and in the assay with RXF 393 was > 100 µM (inactive) in each case. Also, the GI50 in the assay with SF-539, with SK-MEL-28, in the assay on SK-MEL-5, in the assay on SK-OV-3, in the assay on SR and with TK-10 was > 100 µM (inactive) each time. In the assay on UO-31, the GI50 is > 100 µM (inactive).

Consider `CCCCOC(=O)C(=O)C(CC(C(=O)Cc1ccccc1)c1ccccc1)C(=O)C=C(C)C` (centres undefined), for which the GI50 is 76.6 µM (inactive) in the assay with CCRF-CEM; > 100 µM (inactive) in the assay with HCC 2998; 50.1 µM (inactive) in the assay on HL-60; > 100 µM (inactive) in the assay with Hs-578T; > 100 µM (inactive) in the assay on MCF7; > 100 µM (inactive) with MDA-N. In addition, the GI50 in the assay on NCI-H226, in the assay on NCI/ADR-RES, in the assay on OVCAR-3, in the assay on PC-3, with RXF 393 and in the assay with SF-539 was > 100 µM (inactive) in each case. Further, the GI50 in the assay on SK-MEL-28, with SK-MEL-5, with SK-OV-3, in the assay on TK-10 and in the assay with UO-31 was > 100 µM (inactive) throughout.

Take `CCC1CN2CCc3c([nH]c4ccccc34)C2C[C@@H]1CC(=O)N(C)C` (some centres undefined): the GI50 in the assay on CCRF-CEM, with HCC 2998, in the assay with HL-60, in the assay on Malme-3M, in the assay on NCI-H226 and in the assay with OVCAR-3 was > 100 µM (inactive) each time. Further, the GI50 with RXF 393 was > 100 µM (inactive); in the assay with SF-539 it was > 100 µM (inactive); in the assay with SK-MEL-28 it was > 100 µM (inactive); in the assay on SK-MEL-5, > 100 µM (inactive); in the assay with SK-OV-3 it was 39.6 µM (inactive); in the assay with SR it was 78.7 µM (inactive). Also, the GI50 with TK-10 and in the assay with UO-31 was > 100 µM (inactive) throughout.

`CC(=O)N1C=Cc2c(c(C)c3c([nH]c4ccccc43)c2C)C1`: the GI50 in the assay on CCRF-CEM is 12.8 µM (inactive); with HL-60, 23.1 µM (inactive); in the assay with Hs-578T, 3.62 µM (inactive); in the assay with MCF7 it was 2.72 µM (inactive); in the assay on MDA-N, 8.75 µM (inactive); in the assay with Malme-3M it was 7.53 µM (inactive). In addition, the GI50 in the assay on NCI-H226 was 10.3 µM (inactive); with NCI/ADR-RES, 2.5 µM (inactive); with OVCAR-3, 1.74 µM (inactive); with PC-3 it was 4.95 µM (inactive); with RXF 393, 16.3 µM (inactive); in the assay on SF-539, 5.27 µM (inactive). Besides, the GI50 was 15.3 µM (inactive) in the assay on SK-MEL-28; 13.8 µM (inactive) in the assay on SK-MEL-5; 13.6 µM (inactive) in the assay with SK-OV-3; 34.2 µM (inactive) in the assay on SR; 10.8 µM (inactive) with TK-10.

As for `Cc1ccc(/N=N/N(C)C(=O)C(C)N)cc1` (centres undefined), the GI50 with CCRF-CEM, in the assay with HCC 2998, in the assay with HL-60, with MCF7, in the assay on MDA-N and in the assay on Malme-3M was > 100 µM (inactive) in each case. In addition, the GI50 with NCI-H226, in the assay on NCI/ADR-RES, with OVCAR-3, with PC-3, in the assay with RXF 393 and in the assay with SF-539 was > 100 µM (inactive) throughout. For the same compound, the GI50 with SK-MEL-28 is > 100 µM (inactive); in the assay on SK-MEL-5, > 100 µM (inactive); in the assay on SR, 26.9 µM (inactive); in the assay on T47D, > 100 µM (inactive); with TK-10, > 100 µM (inactive); with UO-31, 34.4 µM (inactive).

Regarding `CCCN(CCC)C(=S)N/N=C/c1cccc(C)n1`, the GI50 in the assay with CCRF-CEM was < 0.01 µM (active); with HL-60, < 0.01 µM (active); in the assay with Hs-578T it was 2.16 µM (inactive); with MCF7, < 0.01 µM (active); with MDA-N, 0.621 µM (active); in the assay on Malme-3M it was 0.697 µM (active). The GI50 in the assay with NCI-H226 is 0.129 µM (active); in the assay on NCI/ADR-RES, < 0.01 µM (active); with OVCAR-3, < 0.01 µM (active); in the assay on PC-3, 0.0773 µM (active); with RXF 393 it was 0.151 µM (active); in the assay on SF-539, 0.214 µM (active). The GI50 in the assay with SK-MEL-28 was 0.778 µM (active); in the assay on SK-MEL-5 it was 0.129 µM (active); in the assay with SK-OV-3 it was 0.718 µM (active); in the assay with SR it was 0.0571 µM (active); in the assay with TK-10, 0.142 µM (active); in the assay on UO-31, 0.177 µM (active).

As to `COc1ccccc1/C=C1/Sc2scc(CC(=O)Nc3ccccc3)[n+]2C1=O`, the GI50 in the assay with CCRF-CEM is 17.7 µM (inactive); in the assay with HCC 2998, 30.8 µM (inactive); with HL-60 it was 15 µM (inactive); with Hs-578T, 40.6 µM (inactive); in the assay on MCF7, 31.4 µM (inactive); with MDA-N, 20.2 µM (inactive). In addition, the GI50 was 20.3 µM (inactive) in the assay with NCI-H226; 19.8 µM (inactive) in the assay with NCI/ADR-RES; 16.9 µM (inactive) with OVCAR-3; 26 µM (inactive) with PC-3; 22.6 µM (inactive) in the assay on RXF 393; 36.3 µM (inactive) with SF-539. The GI50 in the assay with SK-MEL-28 was 22.4 µM (inactive); in the assay with SK-MEL-5, 16 µM (inactive); in the assay on SK-OV-3, 27.5 µM (inactive); with TK-10, 25.2 µM (inactive); in the assay with UO-31, 17.9 µM (inactive).

As for `O=C(c1ccc(Cl)cc1Cl)N(C(=O)N1CCC(c2ccccc2)CC1)c1ccccc1`, the GI50 in the assay on CCRF-CEM was 13.8 µM (inactive); with HCC 2998 it was > 100 µM (inactive); with MCF7, 72.4 µM (inactive); in the assay on NCI-H226 it was > 100 µM (inactive); with NCI/ADR-RES, > 100 µM (inactive); with OVCAR-3, > 100 µM (inactive). Also, the GI50 in the assay with PC-3 is 91.2 µM (inactive); in the assay with SF-539 it was > 100 µM (inactive); in the assay with SK-MEL-28, > 100 µM (inactive); in the assay on SK-MEL-5 it was 37.3 µM (inactive); with SK-OV-3, > 100 µM (inactive); with SR, 24.3 µM (inactive). Moreover, the GI50 in the assay on T47D is 53.7 µM (inactive); in the assay with UO-31 it was > 100 µM (inactive).

As to `N#CSC#Cc1ccc(C#CSC#N)cc1`, the GI50 with CCRF-CEM is 10.1 µM (inactive); in the assay with HCC 2998, 17.6 µM (inactive); with HL-60, 54.8 µM (inactive); in the assay on Hs-578T, 15.7 µM (inactive); in the assay on MCF7, 19.9 µM (inactive); in the assay on MDA-N, 17.8 µM (inactive). Besides, the GI50 in the assay with Malme-3M is 19.1 µM (inactive); with NCI-H226, 21.6 µM (inactive); in the assay on NCI/ADR-RES, 19.2 µM (inactive); in the assay on OVCAR-3, 19.3 µM (inactive); in the assay with PC-3, 15.6 µM (inactive); with RXF 393, 18.7 µM (inactive). Further, the GI50 was 20.9 µM (inactive) with SF-539; 26.2 µM (inactive) in the assay with SK-MEL-28; 18.2 µM (inactive) in the assay on SK-MEL-5; 22.6 µM (inactive) in the assay with SK-OV-3; 51.5 µM (inactive) with SR; 16.6 µM (inactive) with TK-10. Further, the GI50 with UO-31 is 17.2 µM (inactive).

Consider `O=C(CN(C(=O)OC12CC3CC(CC(C3)C1)C2)C(=O)OC12CC3CC(CC(C3)C1)C2)Oc1ccc([N+](=O)[O-])cc1`, for which the GI50 is 30.5 µM (inactive) in the assay with CCRF-CEM; > 100 µM (inactive) in the assay on HCC 2998; > 100 µM (inactive) in the assay with Hs-578T; > 100 µM (inactive) in the assay with MCF7; > 100 µM (inactive) in the assay with MDA-N; 75 µM (inactive) in the assay with Malme-3M. Besides, the GI50 in the assay on NCI-H226 is > 100 µM (inactive); in the assay with NCI/ADR-RES, 85.3 µM (inactive); in the assay on OVCAR-3, > 100 µM (inactive); in the assay on PC-3, 16.1 µM (inactive); with RXF 393, 42 µM (inactive); with SF-539, > 100 µM (inactive). Besides, the GI50 in the assay with SK-MEL-28 is > 100 µM (inactive); in the assay on SK-MEL-5, 87.5 µM (inactive); in the assay on SK-OV-3, > 100 µM (inactive); in the assay with SR, > 100 µM (inactive); in the assay on TK-10, 52.4 µM (inactive); in the assay with UO-31 it was > 100 µM (inactive).

`COC(=O)CCC(NC(=S)N/N=C(\C)c1cnc2ccccc2n1)C(=O)OC` (centres undefined): the GI50 in the assay with CCRF-CEM was 3.29 µM (inactive); in the assay with HCC 2998 it was 32.1 µM (inactive); in the assay with HL-60, 2.33 µM (inactive); in the assay on Malme-3M, 41.3 µM (inactive); with NCI-H226 it was 41.8 µM (inactive); with OVCAR-3, 42.8 µM (inactive). The GI50 with RXF 393 was 30.2 µM (inactive); with SF-539, 41.8 µM (inactive); in the assay on SK-MEL-28, 40.9 µM (inactive); with SK-MEL-5, 21.2 µM (inactive); in the assay with SK-OV-3, 76.9 µM (inactive); in the assay with SR, 15.1 µM (inactive). The GI50 was > 100 µM (inactive) with TK-10 and 27.4 µM (inactive) in the assay with UO-31.

Source of the values: ChEMBL document CHEMBL1201862, “PubChem BioAssay data set” (2004).
